Experimental data reported in patent publication US10857110B2, “Antibacterial compounds” (CONSEJO NACIONAL DE INVESTIGACIONES CIENTÍFICAS Y TÉCNICAS …, priority 2016, dated 2020).
Values after ≈ are worked out from the molar mass of the structure shown. Read-outs that look alike come from different tables or passages of the source.

What was measured:
Test in all cases: MIC/MBC antibiotic sensitivity (CLSI)
Format in all cases: cell-based
[1] = test system: Bacillus cereus (ATCC10876); settings: for MBC: read-out: MBC; for MIC: read-out: MIC
Protocol: (§1) The new compounds of the invention were synthesized following the general method of preparation (Tetrahedron, 2001, 57, 1671-1675), from the reaction between an intermediary compound of the acyl thiourea and HgCl2 in presence of trimethylamine. The products were adequately characterized regarding its chemistry. The antibacterial activity of the new compounds was assayed against two Gram-positive reference strains: Staphylococcus aureus (ATCC6538) and Bacillus cereus (ATCC10876), a fermenting Gram-negative strain: Escherichia coli (ATCC25922), and 26 non-fermenting Gram-negative isolates, including 3 reference strains: Pseudomonas aeruginosa (PAO1), Bordetella bronchiseptica (9.73H+), and Inquilinus limosus (DSM16000), and 23 isolates recovered from patients suffering from cystic fibrosis, including one Achromobacter xylosoxidans isolate, and 22 isolates belonging to the Burkholderia cepacia complex. The later were selected because they presented resistance to a high number of antimicrobial compounds, among a panel of 125 clinical isolates previously analyzed for its resistance against 17 antimicrobial compounds (1,2). The antibiotic sensitivity studies were performed by applying two quantitative methods which allow to determine the minimum inhibitory concentration (MIC) and the minimum bactericidal concentration (MBC).
(§2) The compounds obtained in Examples 1 and 2 were assayed against 23 isolates recovered from the sputum of patients suffering from cystic fibrosis being treated at the Sor Maria Ludovica Children Hospital (La Plata, Buenos Aires, Argentina). Nineteen of these isolates were selected for being highly resistant to most of the antimicrobial agents of clinical use from a panel of 125 isolates previously characterized in Martina et al. (1). Reference strains were also included: Gram (+) bacteria: B. cereus and S. aureus, fermenting Gram (−) bacteria: E. coli, and non-fermenting Gram (−) bacteria: Inquilinus limosus (DSM16000), B. bronchiseptica, and Pseudomonas aeruginosa (PAO1). The antibiotic sensitivity studies were performed applying two quantitative methods which allow to determine the minimum inhibitory concentration (MIC) and the minimum bactericidal concentration (MBC) according to the criteria established by the Clinical and Laboratory Standards Institute (CLSI) (4). For comparative purposes, three antibiotics commonly used in the treatment of pulmonary infections in cystic fibrosis patients were included in the study: tobramycin, ceftazidime and meropenem.

[2] = test system: Burkholderia cenocepacia (CBC 033); settings: Burkholderia cenocepacia, CLSI criteria, B. cenocepacia (CBC 033), read-out: MIC (R/I/S category)
Protocol: as §1, §2

[3] = test system: Burkholderia multivorans (CBC 019); settings: for MIC: Burkholderia multivorans, CLSI criteria, B. multivorans (CBC 019), read-out: MIC (R/I/S category)
Protocol: as §1, §2

[4] = test system: Burkholderia multivorans (CBC 021); settings: for MIC: Burkholderia multivorans, CLSI criteria, B. multivorans (CBC 021), read-out: MIC (R/I/S category)
Protocol: as §1, §2

B. contaminans (HNBC001) = settings: CLSI criteria, read-out: MIC (R/I/S category)
Protocol: as §1, §2

[5] = test system: Burkholderia multivorans (CBC 016); settings: Burkholderia multivorans, CLSI criteria, B. multivorans (CBC 016), read-out: MIC (R/I/S category)
Protocol: as §1, §2

[6] = test system: Burkholderia cepacia (CBC 011); settings: for MIC: Burkholderia cepacia, CLSI criteria, B. cepacia (CBC 011), read-out: MIC (R/I/S category)
Protocol: as §1, §2

[7] = test system: Burkholderia multivorans (CBC 020); settings: for MIC: Burkholderia multivorans, CLSI criteria, B. multivorans (CBC 020), read-out: MIC (R/I/S category)
Protocol: as §1, §2

[8] = test system: Burkholderia cenocepacia (CBC 029); settings: Burkholderia cenocepacia, CLSI criteria, B. cenocepacia (CBC 029), read-out: MIC (R/I/S category)
Protocol: as §1, §2

[9] = test system: Burkholderia cepacia (CBC 010); settings: for MIC: Burkholderia cepacia, CLSI criteria, B. cepacia (CBC 010), read-out: MIC (R/I/S category)
Protocol: as §1, §2

[10] = test system: Escherichia coli (ATCC25922); settings: Escherichia coli, E. coli (ATCC25922); for MBC: read-out: MBC; for MIC: read-out: MIC
Protocol: as §1, §2

[11] = test system: Burkholderia cenocepacia (CBC 036); settings: Burkholderia cenocepacia, CLSI criteria, B. cenocepacia (CBC 036), read-out: MIC (R/I/S category)
Protocol: as §1, §2

[12] = test system: Burkholderia multivorans (CBC 018); settings: for MIC: Burkholderia multivorans, CLSI criteria, B. multivorans (CBC 018), read-out: MIC (R/I/S category)
Protocol: as §1, §2

[13] = test system: Burkholderia cenocepacia (CBC 032); settings: Burkholderia cenocepacia, CLSI criteria, B. cenocepacia (CBC 032), read-out: MIC (R/I/S category)
Protocol: as §1, §2

[14] = test system: Bordetella bronchiseptica (9.73H+); settings: B. bronchiseptica (9.73H+); for MBC: read-out: MBC; for MIC: read-out: MIC
Protocol: as §1, §2

[15] = test system: Burkholderia cenocepacia (CBC 031); settings: Burkholderia cenocepacia, CLSI criteria, B. cenocepacia (CBC 031), read-out: MIC (R/I/S category)
Protocol: as §1, §2

[16] = test system: Burkholderia multivorans (CBC 015); settings: for MIC: Burkholderia multivorans, CLSI criteria, B. multivorans (CBC 015), read-out: MIC (R/I/S category)
Protocol: as §1, §2

[17] = test system: Burkholderia seminalis (CBC 040); settings: Burkholderia seminalis, CLSI criteria, B. seminalis (CBC 040), read-out: MIC (R/I/S category)
Protocol: as §1, §2

[18] = test system: Staphylococcus aureus (ATCC6538); settings: Staphylococcus aureus, S. aureus (ATCC6538); for MBC: read-out: MBC; for MIC: read-out: MIC
Protocol: as §1, §2

[19] = test system: Pseudomonas aeruginosa (PAO1); settings: Pseudomonas aeruginosa, P. aeruginosa (PAO1); for MBC: read-out: MBC; for MIC: read-out: MIC
Protocol: as §1, §2

[20] = test system: Burkholderia seminalis (CBC 042); settings: Burkholderia seminalis, CLSI criteria, B. seminalis (CBC 042), read-out: MIC (R/I/S category)
Protocol: as §1, §2

[21] = test system: Burkholderia cenocepacia (CBC 024); settings: Burkholderia cenocepacia, CLSI criteria, B. cenocepacia (CBC 024), read-out: MIC (R/I/S category)
Protocol: as §1, §2

[22] = test system: Burkholderia cenocepacia (HE001); settings: Burkholderia cenocepacia, CLSI criteria, B. cenocepacia (HE001), read-out: MIC (R/I/S category)
Protocol: as §1, §2

[23] = test system: Burkholderia cenocepacia (CBC 035); settings: for MIC: Burkholderia cenocepacia, CLSI criteria, B. cenocepacia (CBC 035), read-out: MIC (R/I/S category)
Protocol: as §1, §2

With `C[C@@H](O)[C@H]1C(=O)N2C(C(=O)O)=C(S[C@@H]3CN[C@H](C(=O)N(C)C)C3)[C@H](C)[C@H]12` [Meropenem, meropenem] as the compound, how does the MBC [1] read?
Its MBC is less than 0.48 µg/mL.

What about the MIC [1] of the same compound?
The MIC was less than 0.48 µg/mL.

And the MIC ([2]; Meropenem)?
Its MIC is greater than 16 µg/mL.

And the MBC ([3]; Burkholderia multivorans (CBC 019))?
The MBC was 7.81 µg/mL (≈ 20.4 µM).

What about the MIC ([3]; Meropenem) of the same compound?
Its MIC is less than 4 µg/mL.

And the MBC ([4]; Burkholderia multivorans (CBC 021))?
Its MBC is 7.81 µg/mL (≈ 20.4 µM).

And the MIC ([4]; Meropenem)?
The MIC was less than 4 µg/mL.

What about the MIC (B. contaminans (HNBC001); Meropenem) of the same compound?
The MIC was greater than 16 µg/mL.

And the MIC ([5]; Meropenem)?
The MIC was greater than 16 µg/mL.

And the MBC ([6]; Burkholderia cepacia (CBC 011))?
The MBC was greater than 62.5 µg/mL.

And the MIC ([6]; Meropenem)?
The MIC was less than 4 µg/mL.

What about the MBC ([7]; Burkholderia multivorans (CBC 020)) of the same compound?
Its MBC is 31.2 µg/mL (≈ 81.5 µM).

And the MIC ([7]; Meropenem)?
Its MIC is less than 4 µg/mL.

And the MIC ([8]; Meropenem)?
Its MIC is greater than 16 µg/mL.

And the MBC ([9]; Burkholderia cepacia (CBC 010))?
The MBC was 3.9 µg/mL (≈ 10.2 µM).

And the MIC ([9]; Meropenem)?
Its MIC is less than 4 µg/mL.

What about the MBC [10] of the same compound?
Its MBC is less than 0.48 µg/mL.

And the MIC [10]?
The MIC was less than 0.48 µg/mL.

And the MIC ([11]; Meropenem)?
The MIC was greater than 16 µg/mL.

What about the MBC ([12]; Burkholderia multivorans (CBC 018), read-out: MBC) of the same compound?
The MBC was 3.9 µg/mL (≈ 10.2 µM).

What about the MIC ([12]; Meropenem) of the same compound?
The MIC was less than 4 µg/mL.

And the MIC ([13]; Meropenem)?
The MIC was greater than 16 µg/mL.

What about the MBC [14] of the same compound?
The MBC was less than 0.48 µg/mL.

What about the MIC [14] of the same compound?
Its MIC is less than 0.48 µg/mL.

What about the MIC ([15]; Meropenem) of the same compound?
Its MIC is greater than 16 µg/mL.

What about the MBC ([16]; Burkholderia multivorans (CBC 015), read-out: MBC) of the same compound?
Its MBC is 3.9 µg/mL (≈ 10.2 µM).

What about the MIC ([16]; Meropenem) of the same compound?
The MIC was less than 4 µg/mL.

What about the MIC ([17]; Meropenem) of the same compound?
Its MIC is greater than 16 µg/mL.

What about the MBC [18] of the same compound?
The MBC was less than 0.48 µg/mL.

And the MIC [18]?
The MIC was less than 0.48 µg/mL.

What about the MBC [19] of the same compound?
Its MBC is less than 0.48 µg/mL.

What about the MIC [19] of the same compound?
Its MIC is less than 0.48 µg/mL.

What about the MIC ([20]; Meropenem) of the same compound?
Its MIC is greater than 16 µg/mL.

What about the MIC ([21]; Meropenem) of the same compound?
The MIC was greater than 16 µg/mL.

And the MIC ([22]; Meropenem)?
Its MIC is greater than 16 µg/mL.

And the MBC ([23]; Burkholderia cenocepacia (CBC 035), read-out: MBC)?
Its MBC is 15.6 µg/mL (≈ 40.7 µM).

And the MIC ([23]; Meropenem)?
The MIC was less than 4 µg/mL.

How did the MBC [1] turn out when `NC[C@H]1O[C@H](O[C@H]2[C@H](O)[C@@H](O[C@H]3O[C@H](CO)[C@@H](O)[C@H](N)[C@H]3O)[C@H](N)C[C@@H]2N)[C@H](N)C[C@@H]1O` [Tobramucin, tobramycin] was run?
The MBC was 31.2 µg/mL (≈ 66.8 µM).

And the MIC [1]?
Its MIC is 7.81 µg/mL (≈ 16.7 µM).

What about the MIC ([2]; Tobramucin) of the same compound?
The MIC was greater than 16 µg/mL.

What about the MIC ([3]; Tobramucin) of the same compound?
Its MIC is greater than 16 µg/mL.

And the MIC ([4]; Tobramucin)?
The MIC was greater than 16 µg/mL.

And the MIC (B. contaminans (HNBC001); Tobramucin)?
The MIC was greater than 16 µg/mL.

And the MIC ([5]; Tobramucin)?
The MIC was greater than 16 µg/mL.

What about the MIC ([6]; Tobramucin) of the same compound?
The MIC was greater than 16 µg/mL.

What about the MIC ([7]; Tobramucin) of the same compound?
Its MIC is greater than 16 µg/mL.

What about the MIC ([8]; Tobramucin) of the same compound?
Its MIC is greater than 16 µg/mL.

What about the MIC ([9]; Tobramucin) of the same compound?
The MIC was greater than 16 µg/mL.

And the MBC [10]?
Its MBC is 15.6 µg/mL (≈ 33.4 µM).

What about the MIC [10] of the same compound?
Its MIC is 15.6 µg/mL (≈ 33.4 µM).

And the MIC ([11]; Tobramucin)?
Its MIC is greater than 16 µg/mL.

What about the MIC ([12]; Tobramucin) of the same compound?
The MIC was greater than 16 µg/mL.

What about the MIC ([13]; Tobramucin) of the same compound?
The MIC was greater than 16 µg/mL.

What about the MBC [14] of the same compound?
The MBC was 62.5 µg/mL (≈ 134 µM).

And the MIC [14]?
The MIC was 62.5 µg/mL (≈ 134 µM).

What about the MIC ([15]; Tobramucin) of the same compound?
Its MIC is greater than 16 µg/mL.

And the MIC ([16]; Tobramucin)?
The MIC was greater than 16 µg/mL.

And the MIC ([17]; Tobramucin)?
Its MIC is greater than 16 µg/mL.

What about the MBC [18] of the same compound?
The MBC was 1.95 µg/mL (≈ 4.17 µM).

What about the MIC [18] of the same compound?
The MIC was 1.95 µg/mL (≈ 4.17 µM).

What about the MBC [19] of the same compound?
Its MBC is 1.95 µg/mL (≈ 4.17 µM).

What about the MIC [19] of the same compound?
The MIC was 1.95 µg/mL (≈ 4.17 µM).

What about the MIC ([20]; Tobramucin) of the same compound?
Its MIC is greater than 16 µg/mL.

And the MIC ([21]; Tobramucin)?
Its MIC is greater than 16 µg/mL.

What about the MIC ([22]; Tobramucin) of the same compound?
Its MIC is greater than 16 µg/mL.

What about the MIC ([23]; Tobramucin) of the same compound?
Its MIC is greater than 16 µg/mL.
